Holding throughout (assay type): cell-based
In assay [1] the test system is Human brain microvascular endothelial cells (HBVEC). Nature of the assay: HEME-induced cell death of HBVEC by MTT assay. The conditions noted are these: HEME+AG490 (50 μmol/l) for 24 h, FIG. 7. The procedure:
Human brain microvascular endothelial cells (HBVEC) were treated with HEME or with HEME plus AG490 and monitored for cell death progression by MTT assay.
Cell death progression in HBVEC cultured after treatment with HEME or HEME+AG490 (50 μmol/l) for 24 h as assayed by MTT assay (*P<0.05, n=3 triplicate experiments). The curves correspond to 3 experiments run in parallel. In all the samples, the same concentration of vehicle (DMSO, 0.1%) was used.
On the technique in general: Tetrazolium assays rely on reduction of a dye to a coloured formazan, in cell work by metabolically active cells.

A further assay concerns HO-1. Nature of the assay: HO-1 expression in mouse brain endothelial cell line CRL2581. To be noted: CRL2581 cells; for expression of HO-1 mRNA and protein: data not shown. From the text: (§1) FIGS. 6D and 6E show protein expression of CXCL10 relative to actin in untreated control cells (D, E) and in cells treated with siSTAT3 (D), HEME (D, E), siSTAT3+HEME (D), AG490 (E) or AG490+HEME (E).
(§2) High level of free HEME produced during malaria infection causes inflammation that damages host vascular endothelium and is a major contributor to pathogenesis of severe malaria. To determine how HEME stimulates HO-1, CXCL10 and STAT3 signaling pathways in vitro, mouse brain endothelial cell line CRL2581 was treated with HEME and the effects of HEME on expression of HO-1, CXCL10 and STAT3 activation was assessed. […] When pSTAT3 was reduced by short interfering STAT3 (siSTAT3) (FIG. 6B) or pharmacological inhibitor of Jak, AG490 (FIG. 6C), HO-1 protein expression was inhibited correspondingly.

For a further assay, the system named is STAT3. Nature of the assay: STAT3 activation (pSTAT3) in HEME-treated mouse brain endothelial cell line CRL2581. To be noted: CRL2581 cells; for pSTAT3 level: FIG. 6B, 6C, 6G.
From the text: as §1, §2

The subject of the next assay is CXCL10. Nature of the assay: CXCL10 expression and promoter activity in mouse brain endothelial cell line CRL2581. To be noted: CRL2581 cells.
From the text: as §1, §2

Assay [2] concerns JAK/STAT3 signaling pathway. Nature of the assay: Human JAK/STAT signaling pathway real time RT^2 Profile PCR arrays in HBVEC. To be noted: HBVEC treated with 20 μM HEME vs vehicle; FIG. 8. The procedure: Target genes of JAK/STAT3 signaling pathway upon HEME treatment was further assessed using real time RT^2 Profile PCR arrays (Qiagen, PAHS-039A). The results shown in FIG. 7 are expressed as the fold changes in expression obtained by comparing HBVEC treated with 20 μM HEME or with vehicle as control. […] The up regulated genes include STAT-induced gene matrix metallopeptidase 3 (MMP3), apoptosis-related gene CCAAT/enhancer binding protein (C/EBPb), Fc fragment of IgG, high affinity Ia, receptor (FCGR1A), Jun B proto-oncogene (JUNB), nuclear factor of kappa light polypeptide gene enhancer in B-cells 1 (NFκB), suppressor of cytokine signaling (SOCS3), SOCS4 and signal transducer and activator of transcription 4 (STAT4).

This is an account of results in US8791067B2, “Method for treating malaria” (Morehouse School of Medicine, priority 2012, dated 2014).

Take `N#C/C(=C\c1ccc(O)c(O)c1)C(=O)NCc1ccccc1` [AG490, tyrphostin AG490]: the “HEME-induced apoptosis / cell death in HBVEC” value in assay [1] is “can rescue the HEME-induced apoptosis”. Also, the HO-1 protein expression result with HO-1 (HEME-induced, pSTAT3 reduced, FIG. 6B, 6C) is given as “inhibited”. Moreover, the pSTAT3 level result in the assay on STAT3 was “reduced”. Moreover, the “expression of CXCL10” value with CXCL10 (protein relative to actin, FIG. 6D, 6E) is “reduced expression”.
For `C=CC1=C(C)c2cc3[n-]c(cc4nc(cc5[n-]c(cc1n2)c(C)c5CCC(=O)[O-])C(CCC(=O)[O-])=C4C)c(C)c3C=C.[Co+2].[H+].[H+]` [CoPP, cobalt protoporphyrin], the “expression of HO-1 mRNA and protein” value with HO-1 is given as “significantly up regulated”. For the same compound, the pSTAT3 level result in the assay with STAT3 is on record as “increased”.
Turning to `C=CC1=C(C)c2cc3[n-]c(cc4[n-]c(cc5nc(cc1n2)C(C)=C5C=C)c(C)c4CCC(=O)O)c(CCC(=O)O)c3C.[Fe+2]` [HEME], the “expression of HO-1 mRNA and protein” value in the assay on HO-1 is given as “significantly up regulated”. For the same compound, in the assay with STAT3 (FIG. 6A), the “HEME concentration at which pSTAT3 peaked” value is reported as 5 μM and the “HEME concentration from which pSTAT3 was increased” value was 1 μM. The “expression of CXCL10 mRNA” value in the assay with CXCL10 is “significantly up regulated”. Besides, in the assay with CXCL10 (data not shown), the CXCL10 promoter activity entry is “enhances CXCL10 promoter activity in a dose-dependent manner”. Also, in assay [2], the “fold-change of down regulated genes (F2R, OAS1)” value is on record as “greater than 2 fold” and the “fold-change of up regulated genes (MMP3, C/EBPb, FCGR1A, JUNB, NFκB, SOCS3, SOCS4, STAT4)” value was “greater than 2 fold”.
For `C=CC1=C(C)c2cc3[n-]c(cc4[n-]c(cc5nc(cc1n2)C(C)=C5C=C)c(C)c4CCC(=O)O)c(CCC(=O)O)c3C.[Zn+2]` [ZnPP], in the assay with HO-1, the “expression of HO-1 mRNA and protein” value is given as “down regulated”. The pSTAT3 level result with STAT3 was “decreased”.
